Measurements reported in US20160251403A1, “PEPTIDE COMBINATIONS AND USES THEREOF IN TREATING DUST MITE ALLERGY” (ALK-ABELLO A/S, priority 2013, published 2016).
Changes are numbered by the printed parent chain. No end group written: not given here.

Tests used:
DPA10103-DPB10401 = biological target: T1, DPA10103-DPB10401 (Homo sapiens, UniProt P04440+P20036); test: Competitive MHC class II binding assay, DPA10103-DPB10401
T1 sequence (P20036 29-260): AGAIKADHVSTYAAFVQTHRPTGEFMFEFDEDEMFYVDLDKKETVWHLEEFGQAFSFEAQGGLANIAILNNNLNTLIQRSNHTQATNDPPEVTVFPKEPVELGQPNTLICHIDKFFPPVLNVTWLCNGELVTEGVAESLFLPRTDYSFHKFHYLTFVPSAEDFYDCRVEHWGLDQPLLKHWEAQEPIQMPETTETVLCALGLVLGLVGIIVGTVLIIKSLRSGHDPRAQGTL
T1 sequence (P04440 30-258): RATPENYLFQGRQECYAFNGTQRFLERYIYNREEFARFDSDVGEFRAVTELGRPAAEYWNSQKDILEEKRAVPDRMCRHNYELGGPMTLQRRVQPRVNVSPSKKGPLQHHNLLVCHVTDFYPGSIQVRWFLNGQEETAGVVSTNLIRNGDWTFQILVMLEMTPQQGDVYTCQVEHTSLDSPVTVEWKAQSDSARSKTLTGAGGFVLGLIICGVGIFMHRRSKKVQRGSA

DRB1_0401 = DRB1_0401 (Homo sapiens, UniProt P01903+P01911, A100K/A169T/F76Y/I96L/K127E/L162R/M171V/N62H/P40V/Q125Y/R42H/S133A/S149N/S66Y/V115G/V209L/W38E); test: Competitive MHC class II binding assay, DRB1_0401
DRB5_0101 = DRB5_0101 (Homo sapiens, UniProt P01903+Q30154); test: Competitive MHC class II binding assay, DRB5_0101
DRB1_0802 = DRB1_0802 (Homo sapiens, UniProt P01903+P01911, A100R/A103L/A169T/F76Y/H45Y/I96F/K41T/L162R/M171V/P40S/Q125H/Q178H/Q39Y/Q99D/R218S/R42G/S66Y/V115G/W38E); test: Competitive MHC class II binding assay, DRB1_0802
DRB1_1302 = DRB1_1302 (Homo sapiens, UniProt P01903+P01911, A100E/A169T/K41T/L162R/M171V/P40S/Q125H/Q178H/Q39Y/Q99D/R42S/S66N/T262R/V115G/W38E/Y61H); test: Competitive MHC class II binding assay, DRB1_1302;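 note: purified HLA class II protein incubated two to four days with a radiolabeled reference binder and test peptide at six concentrations over a 100,000-fold range, complex-bound radioactivity counted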
DRB1_0901 = DRB1_0901 (Homo sapiens, UniProt P01903+P01911, A100R/A103E/D57H/D86V/F55Y/F60I/F76Y/I96F/K127E/L162R/M171V/P40D/Q125H/Q99R/R33Q/R42F/S133A/S66N/T210M/V115G/W38K/Y107V/Y59G/Y89S); test: Competitive MHC class II binding assay, DRB1_0901;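 note: displacement of a radiolabeled probe peptide from purified HLA class II protein, bound counts read after two to four days incubation, six concentrations spanning 100,000-fold, unlabeled probe as reference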
DRB4_0101 = DRB4_0101 (Homo sapiens, UniProt P01903+P13762, G164S); test: Competitive MHC class II binding assay, DRB4_0101
DRB1_1501 = DRB1_1501 (Homo sapiens, UniProt P01903+P01911); test: Competitive MHC class II binding assay, DRB1_1501
DRB1_0101 = DRB1_0101 (Homo sapiens, UniProt P01903+P01911, A100R/D57E/F55L/F60I/F76Y/I96L/L162R/M171V/P40L/Q125E/R42F/V115G/Y59C); test: Competitive MHC class II binding assay, DRB1_0101;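 note: competition against a radiolabeled probe peptide (0.1–1 nM) for purified HLA class II protein over 2–4 days, bound counts read after antibody capture, six competitor levels across 100,000-fold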
DPA10201-DPB10101 = test: Competitive MHC class II binding assay, DPA10201-DPB10101; conditions: read-out: HLA-DPA10201-DPB10101; positive binding at cutoff 1000 nM
DRB1_0405 = DRB1_0405 (Homo sapiens, UniProt P01903+P01911, A100R/A169T/D86S/F76Y/I96L/K127E/L162R/M171V/N62H/P40V/Q125Y/R42H/S133A/S149N/S66Y/V115G/V209L/W38E); test: Competitive MHC class II binding assay, DRB1_0405
DRB1_0701 = DRB1_0701 (Homo sapiens, UniProt P01903+P01911, A100R/A102G/A103Q/D57E/D86V/E43K/F76Y/K127E/L162R/M171V/P40G/Q125H/Q99D/R33Q/R42Y/R54Q/S133A/S66F/T210M/V115G/Y107V/Y59L/Y89S); test: Competitive MHC class II binding assay, DRB1_0701;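 note: displacement of a radiolabeled reference peptide from purified HLA class II protein, with complex-bound radioactivity counted after 2–4 days of incubation and six concentrations spanning a 100,000-fold range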
DRB3_0202 = DRB3_0202 (Homo sapiens, UniProt P01903+P79483, A212P/D57E/F66Y/L67A/R103Q/R218S/R40L/S89Y/T80R/V86D/Y55F/Y59H); test: Competitive MHC class II binding assay, DRB3_0202
DQA10101-DQB10501 = DQA10101-DQB10501 (Homo sapiens, UniProt P01909+P01920, A157S/A45G/A70V/C70R/D89V/E106S/E118A/E183D/E77G/F83G/G63E/H151Q/H199R/H252R/H253Q/I129T/I235V/I88M/INS77G/K197Q/L107V/L117V/L119Y/L178F/L71W/L74F/L85Q/L91A/L98M/M46L/N214S/P87R/Q116E/Q256R/Q57E/Q76K/R102G/R240Q/R75S/R78G/S102Y/S185I/S41F/S97I/T103A/T109R/T121G/T122I/T172A/T86R/V148I/V68A/V73E/Y34C/Y58G/Y62H); test: Competitive MHC class II binding assay, DQA10101-DQB10501; conditions: positive binding at cutoff 1000 nM; read-out: HLA-DQA10101-DQB10501
DPA10202-DPB10501 = biological target: T2, DPA10202-DPB10501 (Homo sapiens, UniProt P04440+P20036, A42M/A65V/A84E/F191V/F64L/G113D/G114E/K142R/L158P/M116V/M62Q/P115A/Q81R/R125K/T114A/T199I/T259P/V234M); test: Competitive MHC class II binding assay, DPA10202-DPB10501; conditions: positive binding at cutoff 1000 nM; read-out: HLA-DPA10202-DPB10501
T2 sequence (P04440 30-258 A65V/A84E/F64L/G113D/G114E/M116V/P115A/R125K/T199I/V234M): T1 sequence (P04440 30-258) with F35L, A36V, A55E, G84D, G85E, P86A, M87V, R96K, T170I, V205M
T2 sequence (P20036 29-260 A42M/F191V/K142R/L158P/M62Q/Q81R/T114A/T259P): T1 sequence (P20036 29-260) with A14M, M34Q, Q53R, T86A, K114R, L130P, F163V, T231P

DRB1_1201 = DRB1_1201 (Homo sapiens, UniProt P01903+P01911, A100R/A169T/D57E/D86V/F55L/H45Y/K41T/L162R/M171V/P40S/Q125H/Q178H/Q39Y/Q99D/R42G/S66L/T262R/V114A/V67L/W38E/Y59H/Y61H/Y89S); test: Competitive MHC class II binding assay, DRB1_1201
DPA10201-DPB11401 = test: Competitive MHC class II binding assay, DPA10201-DPB11401; conditions: read-out: HLA-DPA10201-DPB11401; positive binding at cutoff 1000 nM
DRB1_0301 = DRB1_0301 (Homo sapiens, UniProt P01903+P01911, A100K/A102G/A103R/A169T/F55Y/I96L/K41T/L162R/M171V/P40S/Q125H/Q178H/Q39Y/R42S/S66N/T106N/T262R/W38E/Y61H); test: Competitive MHC class II binding assay, DRB1_0301
DPA10103-DPB10201 = biological target: T3, DPA10103-DPB10201 (Homo sapiens, UniProt P04440+P20036, A65V/A84D/A85E/K98E); test: Competitive MHC class II binding assay, DPA10103-DPB10201
T3 sequence (P20036 29-260): T1 sequence (P20036 29-260)
T3 sequence (P04440 30-258 A65V/A84D/A85E/K98E): T1 sequence (P04440 30-258) with A36V, A55D, A56E, K69E

Measured: IC50

ESAYLAYRNQSLDLAE [pep-009]
not listed: DPA10202-DPB10501 | DRB1_1201 | DPA10201-DPB11401 | DRB1_0301 | DPA10103-DPB10201
< 1000 nM: all other assays above

QQYDIKYTWNVPKIA [pep-031]
not listed: DPA10103-DPB10401 | DRB1_0101 | DPA10201-DPB10101 | DRB1_0405
< 1000 nM: all other assays above
